Experimental findings from publication PMC8286840, “Identifying SARS-CoV-2 antiviral compounds by screening for small molecule inhibitors of Nsp3 papain-like protease” (Biochemical Journal, 2021) are described below.

In assay [1] the target is T1, SARS-CoV-2 PLpro (nsp3 1564–1878) (Severe acute respiratory syndrome coronavirus 2, UniProt P0DTD1). The assay is described as follows: biochemical. Details: FRET-quenched peptide (Pro3) cleavage by PLpro, 10 min pre-incubation, slope over 20 min, normalised to no-compound control. Conditions: low concentration screen, read-out: % of control remaining.
Assay [2] concerns the target T1, SARS-CoV-2 PLpro (nsp3 1564–1878). The assay is described as follows: biochemical. Details: FRET-quenched peptide (Pro3) cleavage by PLpro, 10 min pre-incubation, slope over 20 min, normalised to no-compound control. Conditions: high concentration screen, read-out: % of control remaining.

The structures appear in SMILES notation. Structures can show the parent of a compound that is named as a salt. Where two headings read alike, the source gives them in different places.

Turning to `C[C@H](CCC(=O)NCCS(=O)(=O)O)[C@H]1CC[C@H]2[C@@H]3[C@@H](O)C[C@@H]4C[C@H](O)CC[C@]4(C)[C@H]3CC[C@]12C` [Tauroursodeoxycholic Acid (TUDCA)], the remaining activity at 1.25 µM in assay [1] (Well no.=8200) worked out at 109%. Moreover, the remaining activity at 3.75 µM in assay [2] (Well no.=8200) is 107%.

Turning to `Cc1cccc(-c2nn3c(c2-c2ccnc4ccc(C(N)=O)cc24)CCC3)n1` [LY2157299], the remaining activity at 1.25 µM in assay [1] (Well no.=4856) is 99.9%. In addition, the remaining activity at 3.75 µM in assay [2] (Well no.=4856) is 98.9%.

Consider `O=C1O[C@H]([C@@H](O)CO)C(O)=C1O` [Ascorbic acid], for which the remaining activity at 1.25 µM in assay [1] (Well no.=4039) came to 99.8%. Also, the remaining activity at 3.75 µM in assay [2] (Well no.=4039) is 99.5%.

Take `CN(C)CCN1C(=O)c2cccc3cc(NC(N)=O)cc(c23)C1=O` [UNBS5162]: the remaining activity at 1.25 µM in assay [1] (Well no.=6953) came to 98.3%; in assay [1] (Well no.=8453) it was 109%. Also, the remaining activity at 3.75 µM was found to be 98% in assay [2] (Well no.=6953) and 112% in assay [2] (Well no.=8453).

As to `COc1cc(/C=C/C(=O)N2CCN(CC(=O)N3CCCC3)CC2)cc(OC)c1OC` [Cinepazide maleate], the remaining activity at 1.25 µM in assay [1] (Well no.=5271) came to 95.9%. The remaining activity at 3.75 µM in assay [2] (Well no.=5271) came to 96.6%.

Consider `C[C@]12CC[C@H]3[C@@H](CC[C@@]45O[C@@H]4C(O)=C(C#N)C[C@]35C)[C@@H]1CC[C@@H]2O` [Trilostane], for which the remaining activity at 1.25 µM in assay [1] (Well no.=4815) is 101%. Besides, in assay [2] (Well no.=4815), the remaining activity at 3.75 µM is 107%.

For `NC(=O)C(=O)O` [Sodium Oxamate], the remaining activity at 1.25 µM in assay [1] (Well no.=944) came to 97.2%. The remaining activity at 3.75 µM in assay [2] (Well no.=944) was determined as 96.9%.

As for `NC(=O)c1noc([C@H](CCCC2CCCCC2)CC(=O)NO)n1` [UK-383,367], the remaining activity at 1.25 µM in assay [1] (Well no.=5839) came to 102%. In addition, the remaining activity at 3.75 µM in assay [2] (Well no.=5839) is 103%.

Take `C[C@]12CCC3=C4CCC(=O)C=C4CC[C@H]3[C@@H]1CC[C@@]2(O)CC#N` [Dienogest]: in assay [1] (Well no.=5145), the remaining activity at 1.25 µM is 102%. Further, the remaining activity at 3.75 µM in assay [2] (Well no.=5145) worked out at 102%.

As to `CCCOC(=O)c1ccc(O)cc1` [Propylparaben], the remaining activity at 1.25 µM in assay [1] (Well no.=7453) is 105%. For the same molecule, in assay [2] (Well no.=7453), the remaining activity at 3.75 µM stood at 101%.

In the case of `C[C@@H](O)CCC[C@H](O)/C=C/[C@H]1[C@H](O)CC(=O)[C@@H]1C/C=C\CCCC(=O)O` [19(R)-Hydroxy-prostaglandin E2], the remaining activity at 1.25 µM in assay [1] (Well no.=4533) stood at 91.3%. Besides, the remaining activity at 3.75 µM in assay [2] (Well no.=4533) stood at 88.8%.

For `Cc1cc(C)nc(NS(=O)(=O)c2ccc(NC(=S)NC(=O)COc3ccc(Br)cc3Cl)cc2)n1` [ZCL278], the remaining activity at 1.25 µM was determined as 98.2% in assay [1] (Well no.=7884) and 102% in assay [1] (Well no.=8389). Further, the remaining activity at 3.75 µM in assay [2] (Well no.=7884) stood at 99.2%; in assay [2] (Well no.=8389), 96.3%.

As for `CN[C@@H]1[C@H](O[C@H]2[C@H](O[C@H]3[C@H](O)[C@@H](O)[C@H](N=C(N)N)[C@@H](O)[C@@H]3N=C(N)N)O[C@@H](C)[C@]2(O)C=O)O[C@@H](CO)[C@H](O)[C@H]1O` [Streptomycin], the remaining activity at 1.25 µM in assay [1] (Well no.=2285) came to 97.7%. In addition, the remaining activity at 3.75 µM in assay [2] (Well no.=2285) came to 97.7%.

Take `CCOC(=O)C1=CCCC[C@H]1S(=O)(=O)Nc1ccc(F)cc1Cl` [Resatorvid]: the remaining activity at 1.25 µM in assay [1] (Well no.=8421) worked out at 90.4%. For the same molecule, the remaining activity at 3.75 µM in assay [2] (Well no.=8421) came out at 90.5%.

Consider `CN1CCCC(n2nc(Cc3ccc(Cl)cc3)c3ccccc3c2=O)CC1` (stereo not drawn) [Azelastine (hydrochloride)], for which the remaining activity at 1.25 µM in assay [1] (Well no.=6173) amounted to 103%. In addition, the remaining activity at 3.75 µM in assay [2] (Well no.=6173) was 105%.

Consider `CC(C)NCC(O)COc1ccc(CCOCC2CC2)cc1` (stereo not drawn) [Betaxolol], for which the remaining activity at 1.25 µM in assay [1] (Well no.=6177) is 104%. Also, in assay [2] (Well no.=6177), the remaining activity at 3.75 µM amounted to 97.1%.

As for `CN1CCc2cc3c(cc2C(=O)Cc2cc4c(cc2C1)OCO4)OCO3` [Protopine], the remaining activity at 1.25 µM in assay [1] (Well no.=3195) turned out to be 105%. Moreover, the remaining activity at 3.75 µM in assay [2] (Well no.=3195) amounted to 104%.

Consider `CCS(=O)(=O)c1cccc(-c2cc(C(=O)NC3CCN(C)CC3)c(C)c3[nH]c4ncc(C)cc4c23)c1` [TAK-901], for which the remaining activity at 1.25 µM in assay [1] (Well no.=4691) is 96.9%. In addition, in assay [2] (Well no.=4691), the remaining activity at 3.75 µM was found to be 100%.

In the case of `CC(C)NNC(=O)c1ccncc1` [Iproniazid phosphate], the remaining activity at 1.25 µM in assay [1] (Well no.=775) is 104%. The remaining activity at 3.75 µM in assay [2] (Well no.=775) turned out to be 105%.

For `NCCCCCCCCCCN` [1,10-Diaminodecane], the remaining activity at 1.25 µM in assay [1] (Well no.=642) is 94.7%. Further, the remaining activity at 3.75 µM in assay [2] (Well no.=642) was 91.7%.

On to `CC[C@H](NC(=O)c1c(O)c(-c2ccccc2)nc2ccccc12)c1ccccc1` [Talnetant], for which the remaining activity at 1.25 µM in assay [1] (Well no.=5814) was 97.3%; in assay [1] (Well no.=8479), 104%. For the same molecule, the remaining activity at 3.75 µM came out at 97.8% in assay [2] (Well no.=5814) and 100% in assay [2] (Well no.=8479).

On to `O=C(O)c1ccc(Nc2ncc3c(n2)-c2ccc(Cl)cc2C(c2c(F)cccc2F)=NC3)cc1` [MLN8054], for which, in assay [1] (Well no.=4659), the remaining activity at 1.25 µM came out at 105%. For the same molecule, the remaining activity at 3.75 µM in assay [2] (Well no.=4659) was 98.1%.

For `C[C@@H]1C[C@H]2CC[C@H](O2)[C@H](C)C(=O)O[C@@H](C)C[C@@H]2CC[C@@H](O2)[C@@H](C)C(=O)O[C@H](C)C[C@H]2CC[C@H](O2)[C@H](C)C(=O)O[C@@H](C)C[C@@H]2CC[C@@H](O2)[C@@H](C)C(=O)O1` [Nonactin], the remaining activity at 1.25 µM in assay [1] (Well no.=3330) is 95.5%. Also, the remaining activity at 3.75 µM in assay [2] (Well no.=3330) amounted to 94.1%.

In the case of `Cc1ccccc1C(=O)c1ccc(Nc2ccc(Br)cc2N)cc1Cl` [EO 1428 - (2-Methylphenyl)-[4-[(2-amino-4-bromophenyl)amino]-2-chlorophenyl]methanone], the remaining activity at 1.25 µM in assay [1] (Well no.=2634) turned out to be 87.4%. For the same molecule, in assay [2] (Well no.=2634), the remaining activity at 3.75 µM stood at 88.7%.

For `COc1cc(C(=O)O[C@H]2C[C@@H]3CC[C@]2(C)C3(C)C)ccc1O` [Tschimganine], in assay [1] (Well no.=3209), the remaining activity at 1.25 µM amounted to 104%. Moreover, the remaining activity at 3.75 µM in assay [2] (Well no.=3209) came out at 104%.

For the molecule `CN(C)CCC(c1ccc(Br)cc1)c1ccccn1` (stereo not drawn) [Brompheniramine (maleate)], in assay [1] (Well no.=7377), the remaining activity at 1.25 µM amounted to 102%. The remaining activity at 3.75 µM in assay [2] (Well no.=7377) was 105%.

On to `CCC(=O)O[C@@H](O[P@](=O)(CCCCc1ccccc1)CC(=O)N1C[C@H](C2CCCCC2)C[C@H]1C(=O)O)C(C)C` [Fosinopril (sodium)], for which the remaining activity at 1.25 µM in assay [1] (Well no.=8750) was 93.5%. The remaining activity at 3.75 µM in assay [2] (Well no.=8750) was 94.7%.

For `CN(C)C(=O)[C@H](O)[C@H](Cc1ccccc1)NC(=O)c1cc2cc(Cl)ccc2[nH]1` [CP-91149], in assay [1] (Well no.=5021), the remaining activity at 1.25 µM turned out to be 101%. Besides, the remaining activity at 3.75 µM in assay [2] (Well no.=5021) stood at 104%.

As to `CC1(COc2ccc(CC3SC(=O)NC3=O)cc2)CCCCC1` (stereo not drawn) [Ciglitazone], the remaining activity at 1.25 µM in assay [1] (Well no.=4236) is 110%. Moreover, the remaining activity at 3.75 µM in assay [2] (Well no.=4236) was determined as 107%.

Turning to `CC(C)c1onc(-c2c(Cl)cccc2Cl)c1COc1ccc(/C=C/c2cccc(C(=O)O)c2)c(Cl)c1` [GW4064], the remaining activity at 1.25 µM in assay [1] (Well no.=5314) worked out at 101%. Besides, the remaining activity at 3.75 µM in assay [2] (Well no.=5314) amounted to 98.2%.
